Values of other authors in patent publication US20100112033A1, “STENTS COATED WITH NO- AND S-NITROSOTHIOL-ELUTING HYDROPHLIC POLYMERIC BLENDS” (Universidade Estadual de Campinas UNICAMP, priority 2005, published 2010).

Legend:
neointimal hyperplasia = conditions: patients, six months after stenting
stenosis = conditions: applied to damaged vascular site, rabbit coronary artery
neointimal formation = conditions: compared to non-nitrosated polymer
platelet aggregation = conditions: compared to non-nitrosated polymer

Substance: sirulimus
- neointimal hyperplasia (neointimal hyperplasia): minimal neointimal hyperplasia

Substance: bovine S-nitrosated albumin: nitrosated protein, a protein adduct of nitric oxide
- effect on stenosis (stenosis): proved to reduce stenosis
- reduction of neointimal formation (neointimal formation): 40%
- reduction of platelet aggregation (platelet aggregation): 50-70%
